The structures appear in SMILES notation.

The first assay deals with Nicotiana benthamiana. The assay is described as follows: Test Example 5: growth promotion under low-temperature stress by hydroponics of Nicotiana benthamiana, 1 ppm. Format: in vivo. The conditions noted are these: 1 ppm in medium, low-temperature stress 7 days at 1.5±1.0° C., green leaf area 3 days later, equation (1). An outline of the steps: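 Seeds were grown in half-strength Murashige–Skoog medium (pH 5.8) containing 1 ppm compound for 7 days at 22 °C, then chilled 7 days at 1.5±1.0 °C and recovered 3 days at 22 °C. Green leaf area was imaged. Relative leaf area = 100×(treated − untreated)/(unstressed untreated − stressed untreated).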
In turn, `NC(=O)c1cc2cc(C(F)(F)F)ccc2o1` [Compound 51] came in with a relative leaf area (% of untreated control) at 1 ppm of no less than 5%.

`O=C(Nc1ccccc1)c1cc2cc(C(F)(F)F)ccc2o1` [Compound 53] showed a relative leaf area (% of untreated control) at 1 ppm of no less than 5%.

As for `Cc1c(C(=O)O)oc2ccccc12` [Compound 36], the relative leaf area (% of untreated control) at 1 ppm was no less than 5%.

In turn, `O=C(O)c1oc2ccc(C(F)(F)F)cc2c1C(F)(F)F` [Compound 69] displayed a relative leaf area (% of untreated control) at 1 ppm of no less than 5%.

In turn, `O=C(NCc1ccccc1)c1oc2ccc(C(F)(F)F)cc2c1C(F)(F)F` [Compound 77] returned a relative leaf area (% of untreated control) at 1 ppm of no less than 5%.

In the case of `COC(=O)c1oc2ccc(C(F)(F)F)cc2c1N(C(C)=O)C(C)=O` [Compound 64], the relative leaf area (% of untreated control) at 1 ppm is no less than 5%.

As to `CNC(=O)c1cc2cc(C(F)(F)F)ccc2o1` [Compound 52], the relative leaf area (% of untreated control) at 1 ppm was no less than 5%.

For `COC(=O)c1oc2ccc(C(F)(F)F)cc2c1NC(=O)C(F)(F)F` [Compound 65], the relative leaf area (% of untreated control) at 1 ppm is no less than 5%.

As for `COC(=O)c1oc2ccc(C(F)(F)F)cc2c1C(F)(F)F` [Compound 70], the relative leaf area (% of untreated control) at 1 ppm was no less than 5%.

`O=C(O)c1nc2c(F)cc(F)cc2s1` [Compound 86] returned a relative leaf area (% of untreated control) at 1 ppm of no less than 5%.

For the compound `COC(=O)c1oc2ccc(C(F)(F)F)cc2c1NS(=O)(=O)c1ccccc1` [Compound 68], the relative leaf area (% of untreated control) at 1 ppm is no less than 5%.

`Cc1c(C(=O)O)oc2ccc(C(F)(F)F)cc12` [Compound 34] yielded a relative leaf area (% of untreated control) at 1 ppm of no less than 5%.

On to `O=C(Oc1ccccc1)c1cc2cc(C(F)(F)F)ccc2o1` [Compound 55], for which the relative leaf area (% of untreated control) at 1 ppm was no less than 5%.

Compound `O=C(OCc1ccccc1)c1cc2cc(C(F)(F)F)ccc2o1` [Compound 56] returned a relative leaf area (% of untreated control) at 1 ppm of no less than 5%.

Compound `COC(=O)c1nc2cc(C(F)(F)F)ccc2o1` [Compound 17, methyl 5-trifluoromethylbenzoxazole-2-carboxylate] returned a relative leaf area (% of untreated control) at 1 ppm of no less than 5%.

`COC(=O)c1oc2ccccc2c1C(F)(F)F` [Compound 83] came in with a relative leaf area (% of untreated control) at 1 ppm of no less than 5%.

Take `O=C(O)c1oc2ccccc2c1C(F)(F)F` [Compound 82]: the relative leaf area (% of untreated control) at 1 ppm is no less than 5%.

Turning to `COC(=O)c1oc2ccccc2c1C` [Compound 37], the relative leaf area (% of untreated control) at 1 ppm was no less than 5%.

In turn, `NC(=O)c1oc2ccc(C(F)(F)F)cc2c1C(F)(F)F` [Compound 74] registered a relative leaf area (% of untreated control) at 1 ppm of no less than 5%.

Another assay deals with Corn seeds (variety: Pioneer 120 31P41). The assay is described as follows: Test Example 14: growth promotion under low-temperature stress by soil drench treatment of corn. The format is in vivo. The conditions noted are these: Zea mays, 120 h; soil drench 20 ml, concentration tested 3 ppm; low-temperature stress 5 days at 2.5° C.; health score 0-5, average of 4 individuals; read-out: Relative value of score (%- untreated control plot). In short, it runs like this: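 7-day-old corn seedlings soil-drenched with 20 ml compound solution (from 1,000× DMSO stock in water; control 0.1% DMSO), grown 2 days at 27 °C, then 5 days at 2.5 °C, then 4 days recovery at 27 °C. Health scored 1–5 by number of leaves ≥⅔ healthy; mean of 4 plants.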
As to `COC(=O)c1nc2cc(C(F)(F)F)ccc2o1` [Compound 17, methyl 5-trifluoromethylbenzoxazole-2-carboxylate], the change in vivo at 3 ppm was greater than 5%.

The assay is the same for the next values; noted with them: Zea mays, 120 h; soil drench 20 ml, concentration tested 10 ppm; low-temperature stress 5 days at 2.5° C.; health score 0-5, average of 4 individuals; read-out: Relative value of score (%- untreated control plot).
With `COC(=O)c1oc2ccc(C(F)(F)F)cc2c1O` [Compound 50], the change in vivo at 10 ppm is greater than 5%.

On to `COC(=O)c1cc2ccccc2o1` [Compound 1], for which the change in vivo at 10 ppm was greater than 5%.

Take `NC(=O)c1oc2ccccc2c1C(F)(F)F` [Compound 85]: the change in vivo at 10 ppm was greater than 5%.

As for `COC(=O)c1cc2cc(C(F)(F)F)ccc2o1` [Compound 3, methyl 5-(trifluoromethyl)benzofuran-2-carboxylate], the change in vivo at 10 ppm is greater than 5%.

`COC(=O)c1cc2c(C(F)(F)F)cccc2o1` [Compound 45]: the change in vivo at 10 ppm was greater than 5%.

On to `Cc1c(C(=O)O)oc2ccc(C(F)(F)F)cc12` [Compound 34], for which the change in vivo at 10 ppm was greater than 5%.

As to `O=C(O)c1oc2ccccc2c1C(F)(F)F` [Compound 82], the change in vivo at 10 ppm was greater than 5%.

Values taken from US20150289512A1, “METHOD FOR PROMOTING PLANT GROWTH” (SUMITOMO CHEMICAL COMPANY, LIMITED, priority 2012, published 2015).
